The source of these data is patent EP0363671A2, “Use of ACE inhibitors against the formation of neo-intima after vascular infliction” (F. HOFFMANN-LA ROCHE AG, priority 1988, dated 1990).

Test [1] concerns Neointima in der ballonisierten Arteria carotis. Nature of the test: Neointima formation after balloon catheter injury (ballooning) of the carotid artery, morphometry of cross-sections 14 days later. It is filed as in vivo, Ratten, Stamm: RORO. The text has this: Eine Arterie wird mit Hilfe eines Ballonkatheters, der durch das Gefässlumen geschoben wird, von innen verletzt (Ballonisierung). Dabei wird die innerste Zellschicht, das Endothel, entfernt und die Muskelzellen der Media leicht geschädigt. Die Muskelzellen werden dadurch zur Proliferation und Migration in die Intima angeregt. […] Das Ausmass der Neointimabildung wird anschliessend an Querschnitten durch die Arterie mit Hilfe morphometrischer Methoden ausgemessen.
Die Tiere wurden randomisiert in eine Kontrollgruppe und in eine Behandlungsgruppe eingeteilt. Es wurden je 11 Tiere als Kontroll- bzw. behandelte Tiere eingesetzt.
Die Tiere der Behandlungsgruppe erhielten 20 Tage lang soviel Cilazapril dem Futter beigemischt, dass die tägliche Cilazaprilaufnahme durchschnittlich 10 mg/kg betrug. […] Die Kontrolltiere erhielten das gleiche Laborfutter ohne Zusatz. Die Ballonisierung der Arteria carotis communis wurde 6 Tage nach der ersten Gabe von Cilazapril durchgeführt. Die Tiere wurden mit Aetherinhalation und subcutaner Verabreichung von 200 mg/kg Hexobarbital-Na narkotisiert. Die distale linke Arteria carotis communis und das Bifurkationsgebiet von Carotis externa und interna wurden freigelegt. Der FOGARTY-Katheter (12-060-2F, Edwards Laboratories, Santa Anna, CA, USA) wurde durch die Arteria carotis externa in die Arteria carotis communis bis zum Aortenbogen eingeführt, der Ballon mit Wasser gefüllt (Füllungsvolumen ca. 0,01-0,015 ml) und gegen einen leichten Widerstand zurückgezogen. Dieses Procedere wurde zweimal wiederholt. Die Arteria carotis externa wurde ligiert und die Wunde vernäht. Die Operateure hatten keine Kenntnis, ob es sich um behandelte oder unbehandelte Tiere handelte.
14 Tage nach der Ballonisierung wurden die Ratten mit Aether anaesthesiert und die Carotiden durch Perfusion mit Fixationsmittel (2,5% Glutaraldehyd in 0,1 M Phosphatpuffer, pH 7,4), fixiert. Hierzu wurde eine Sonde durch den linken Herzventrikel in die aufsteigende Aorta geführt (Einfluss) und eine zweite Sonde durch den rechten Ventrikel in den Vorhof geschoben (Abfluss). Das Gefässsystem wurde zunächst mit 10 ml PBS ("phosphate buffered saline"; gepufferte isotonische NaCI-Lösung) gespült und dann 15 min lang mit Fixationsmittel bei einem Druck von 90 mm Quecksilbersäule fixiert. Anschliessend wurden sowohl die linke (ballonisierte) als auch die rechte (nicht-ballonisierte) Arteria carotis (Kontrolle) herauspräpariert, von Gewebe befreit und zur weiteren Fixation in 2,5% Glutaraldehyd in 0,1 M Cacodylat-Puffer eingelegt. […] Das mittlere Segment wurde für die morphologischen Untersuchungen verwendet.
Semidünne Querschnitte (1 µm dick) wurden mit Toluidinblau und basischem Fuchsin gefärbt.
Aus diesen Messungen wurden folgende Parameter berechnet: • (6) Die mittlere Dicke der Neointima in um, berechnet als Kreisring aus der Querschnittsfläche der Neointima. Hierzu wurde der Neointimaquerschnitt in einen Kreisring transformiert, dessen äussere Begrenzung die Lamina elastica interna bildete. • (7) Die Querschnittsfläche der Neointima zur Querschnittsfläche der Media in Prozent (normalisierte Neointimafläche) • (8) Der Prozentsatz der mit Neointima bedeckten Lamina elastica interna.

Test [2] in a line: Lowering of systolic blood pressure by the dose mixed into the feed. The test is classed as in vivo, Ratten, Stamm: RORO. To be noted: average daily intake 10 mg/kg mixed into feed. How it is done: Die Tiere der Behandlungsgruppe erhielten 20 Tage lang soviel Cilazapril dem Futter beigemischt, dass die tägliche Cilazaprilaufnahme durchschnittlich 10 mg/kg betrug. Es handelt sich um eine Dosierung, die den systolischen Blutdruck um ca. 25% senkte. Die Kontrolltiere erhielten das gleiche Laborfutter ohne Zusatz. Die Ballonisierung der Arteria carotis communis wurde 6 Tage nach der ersten Gabe von Cilazapril durchgeführt. Die Tiere wurden mit Aetherinhalation und subcutaner Verabreichung von 200 mg/kg Hexobarbital-Na narkotisiert. Die distale linke Arteria carotis communis und das Bifurkationsgebiet von Carotis externa und interna wurden freigelegt. Der FOGARTY-Katheter (12-060-2F, Edwards Laboratories, Santa Anna, CA, USA) wurde durch die Arteria carotis externa in die Arteria carotis communis bis zum Aortenbogen eingeführt, der Ballon mit Wasser gefüllt (Füllungsvolumen ca. 0,01-0,015 ml) und gegen einen leichten Widerstand zurückgezogen. Dieses Procedere wurde zweimal wiederholt. Die Arteria carotis externa wurde ligiert und die Wunde vernäht. Die Operateure hatten keine Kenntnis, ob es sich um behandelte oder unbehandelte Tiere handelte.

Where [3] appears, read: versus untreated control animals, about 10 mg/kg daily in feed, 14 days after ballooning.

Take `CCOC(=O)[C@H](CCc1ccccc1)N[C@H]1CCCN2CCC[C@@H](C(=O)O)N2C1=O` [Cilazapril]: in test [1] (calculated as circular ring from the neointima cross-sectional area, mean ± SD, n = 11, about 10 mg/kg daily in feed, 14 days after ballooning, controls 50 ± 25), the “Mittlere Dicke der Neointima” value is on record as 8±7 µm. Besides, in test [1] (mean ± SD, n = 11, about 10 mg/kg daily in feed for 20 days, 14 days after ballooning, untreated controls 324 x 10^3), the “Querschnittsfläche des Lumens” value was 468 x 10^3±114 x 10^3 µm^2. The “Prozentsatz von mit Neointima bedeckter Lamina elastica interna” value in test [1] (mean ± SD, n = 11, about 10 mg/kg daily in feed, 14 days after ballooning, controls 93 ± 15) is listed as 35±29%. The “Querschnittsfläche der Neointima” value in test [1] (mean ± SD, n = 11, cilazapril about 10 mg/kg daily in feed for 20 days, ballooning on day 6, left carotid fixed 14 days after ballooning, untreated controls 109 x 10^3) is recorded as 20 x 10^3±18 x 10^3 µm^2. The “Verhältnis von Querschnittsfläche der Neointima zu Querschnittsfläche der Media” value in test [1] (normalised neointima area, mean ± SD, n = 11, about 10 mg/kg daily in feed, 14 days after ballooning, controls 101 ± 43) came out at 23±21%. In addition, the “Tiere mit vollständig gehemmter Neointimabildung” value in test [1] (number of treated animals out of 11, about 10 mg/kg daily in feed, 14 days after ballooning) is recorded as 3 von 11. In test [1] (setting [3]), the “Hemmung (Querschnittsfläche der Neointima)” value amounted to 82% and the “Hemmung (mittlere Dicke der Neointima)” value is recorded as 84%. Moreover, the “Senkung des systolischen Blutdrucks” value in test [2] was “ca. 25%”.
